Assay results from publication PMC12169663, “Deciphering the Tumor Uptake of Heterobivalent (SST2/Albumin) [^64Cu]Cu-NODAGA-cLAB-TATEs” (Journal of Medicinal Chemistry, 2025).

How the values were obtained:
[1] = biological target: human serum albumin (HSA) (Homo sapiens, UniProt P02768)
Procedure: The ultrafiltration assay used to quantify the binding of the ^64Cu-labeled peptides to HSA was performed as previously described for NODAGA-cLAB-TATEs. , Briefly, a constant activity amount of the radioligands (10–15 MBq) were mixed with different HSA concentrations (200 nM–1.4 mM). Aliquots were loaded into the ultrafiltration devices (4104 centrifugal filter units by Millipore; 30 000 Da nominal molecular weight limit, methylcellulose micropartition membranes) and centrifuged. After centrifugation, aliquots from the top and bottom fractions were measured in a γ-counter (PerkinElmer, Wizard^2 2480 automatic gamma counter). The retained fraction was calculated as a quotient of these measurements. The dissociation constant, K d, was calculated using the Morrison equation.

in vivo = conditions: female, NMRI-nu/nu (Rj:NMRI-Foxn1nu/nu), mouse, iv, total radioactivity
Procedure: The biodistribution of [ ^ 64 Cu]­Cu-NODAGA-cLAB­(5/6)-TATE, [ ^ 64 Cu]­Cu-NODAGA-cLAB4- scr TATE, and [ ^ 64 Cu]­Cu-DOTA-EB-TATE was assessed in a subcutaneous MPC tumor allograft model via small-animal PET imaging (Figure A–D). The time-activity curves (TACs) for tumor, kidneys, and heart are shown in Figure A–D (for TACs of muscle and liver, see Figure S6) and the calculated areas under curves (AUC0–48h) and tumor-to-tissue ratios are graphically summarized in Figure E,F, respectively.
(A–D) Time-activity curves (SUV, decay-corrected, as a function of time up to 48 h) obtained by PET acquisition are depicted (0–2 h in dynamic mode and time points 5, 24, and 48 h p.i.; the x-axes are segmented accordingly). Data shown are mean values (±SD) of a group of MPC tumor-bearing NMRI-nu/nu mice (n = 2, but for cLAB6-TATE n = 4). […] (E) Calculated AUC0–48h values. Data shown are mean values (±SD). (F) Tumor/organ ratios based in the AUC0–48h values.
A number of 4 × 10^6 MPC cells were resuspended in 40 μL of Dulbecco’s phosphate-buffered saline and injected subcutaneously into the shoulder of 7–10-week-old female nude mice (Rj:NMRI-Foxn1^nu/nu, Janvier Laboratories, Le Genest-Saint-Isle, France). General anesthesia was induced and maintained with inhalation of 10% (v/v) desflurane in 30% oxygen/air (v/v). Tumor growth was monitored using caliper measurements. Animals were sacrificed using CO2 inhalation and cervical dislocation. When diameters of MPC tumors reached 8 ± 3 mm (volumes of 65–282 mm^3), small-animal positron emission tomography (PET) was performed using the nanoScan PET/CT (Mediso Medical Imaging Systems, Budapest, Hungary) and Si78 PET/CT (BRUKER, Billerica, MA) instruments. Scanners were cross-calibrated using a syringe source containing 10 MBq of [^64Cu]­CuCl2 diluted in 2 mL of 0.01 M HCl. Each mouse (n = 2) received between 7 and 10 MBq of the respective radioligand (A m = 40 GBq/μmoL) delivered in 0.154 M NaCl via intravenous injection through a tail vein catheter within the initial 30 s after scan start. […] Standardized uptake values (SUV = [MBq detected activity/mL tissue]/[MBq injected activity/g body weight]) were determined in defined volumes of interest (VOIs) and reported as VOI-averaged SUVmean ± range [min–max]. Assuming a density of 1 g/mL for body tissues, the SUVs become dimensionless.

intact AR42J cells = test system: intact AR42J cells; set-up: method as in not given; conditions: nonlabeled ligands, ref not given; cited from earlier work
[2] = test system: SST2-transfected HTC116 cells; set-up: method as in not given; conditions: nonlabeled ligands, ref not given; cited from earlier work

Chain of human serum albumin (HSA) (P02768 25-609): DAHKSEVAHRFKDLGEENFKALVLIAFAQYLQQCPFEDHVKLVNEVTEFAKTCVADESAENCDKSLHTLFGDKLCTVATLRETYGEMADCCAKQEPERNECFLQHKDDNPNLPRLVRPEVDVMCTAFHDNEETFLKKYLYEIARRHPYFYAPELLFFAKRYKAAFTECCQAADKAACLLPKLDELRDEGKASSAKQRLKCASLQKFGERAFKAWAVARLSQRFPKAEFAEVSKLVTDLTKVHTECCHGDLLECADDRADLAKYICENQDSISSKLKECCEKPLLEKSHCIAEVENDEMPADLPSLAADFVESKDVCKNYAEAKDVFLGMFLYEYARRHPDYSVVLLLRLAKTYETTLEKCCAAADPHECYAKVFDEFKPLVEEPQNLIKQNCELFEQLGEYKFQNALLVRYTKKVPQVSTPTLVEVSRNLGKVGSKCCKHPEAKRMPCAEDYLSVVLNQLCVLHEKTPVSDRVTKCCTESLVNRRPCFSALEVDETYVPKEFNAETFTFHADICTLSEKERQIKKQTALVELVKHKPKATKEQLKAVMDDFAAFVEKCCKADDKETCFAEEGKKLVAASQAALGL

Q: Which results are given for `Cc1cc(-c2ccc(NC(=O)[C@H](CCCCNC(=O)CCN3C(=O)CC(SCCC(=O)N[C@H](Cc4ccccc4)C(=O)N[C@H]4CSSC[C@@H](C(=O)N[C@H](C(=O)O)[C@@H](C)O)NC(=O)[C@H]([C@@H](C)O)NC(=O)[C@H](CCCCN)NC(=O)[C@@H](Cc5c[nH]c6ccccc56)NC(=O)[C@H](Cc5ccc(O)cc5)NC4=O)C3=O)NC(=O)CN3CCN(CC(=O)O)CCN(CC(=O)O)CCN(CC(=O)O)CC3)c(C)c2)ccc1/N=N/c1ccc2c(S(=O)(=O)O)cc(S(=O)(=O)O)c(N)c2c1O` (stereo partly shown) [[64Cu]Cu-DOTA-EB-TATE, metal not drawn]?
A: Kd [1]: 1200 nM; logD: -2.26; SUV at 24 h (in vivo): 6 SUV; SUV at 48 h (in vivo): 5.6 SUV; SUV at 72 h (in vivo): 5.6 SUV

Q: With DOTA-TATE as the compound, how does the IC50 (intact AR42J cells) read?
A: 3.46 nM

Q: What about the IC50 [2] of the same compound?
A: 10.2 nM
